According to paper PMC2819846 (Mutation research, 2008):
Where two headings read alike, the source gives them in different places.

How the values were obtained:
[1] = tested on: DNA from Salmonella TA100; assay: Stable DNA adducts by 32P-postlabeling in DNA of treated TA100; type: cell-based; details: DMSO 0.024 ± 0.000
Salmonella TA104 = assay: Salmonella plate-incorporation mutagenicity assay, strain TA104, with S9 mix; type: cell-based
Salmonella TA98 = assay: Salmonella plate-incorporation mutagenicity assay, strain TA98, with S9 mix; type: cell-based
strain TA100 = type: cell-based, Salmonella; details: TA100 liquid-suspension; for Rev/10^6 survivors: DMSO 0.8; for Percent survival: DMSO 100
Salmonella TA100 = assay: Salmonella plate-incorporation mutagenicity assay, strain TA100; type: cell-based
[2] = tested on: DNA from Salmonella TA100; assay: Abasic sites by aldehydic-site assay in DNA of treated TA100; type: cell-based; details: DMSO 5.9 ± 0.33

O[C@@H]1C=Cc2c(ccc3ccc4sccc4c23)[C@H]1O (racemic) [P[3,4-b]T 8,9-diol, (±)-trans-8,9-Dihydrophenanthro[3,4-b]thiophene 8,9-diol]
Stable adducts/10^8 nucleotides ± S.E ([1]; TA100, 2 µg/ml): 0.170 ± 0.045 adducts/10^8 nucleotides | Stable adducts/10^8 nucleotides ± S.E ([1]; TA100, 5 µg/ml): 0.750 ± 0.045 adducts/10^8 nucleotides | Rev/plate (Salmonella TA104; TA104 +S9, Test 2, 0.5 µg/plate, zero-dose 276/260/270): 486/465 | Rev/plate (Salmonella TA104; TA104 +S9, Test 2, 1 µg/plate, zero-dose 276/260/270): 213/673 | Rev/plate (Salmonella TA104; TA104 +S9, Test 2, 2.5 µg/plate, zero-dose 276/260/270): 1311/1300 | Rev/plate (Salmonella TA104; TA104 +S9, Test 2, 5 µg/plate, zero-dose 276/260/270): 1723/1755 | Rev/plate (Salmonella TA104; TA104 +S9, Test 3, 0.5 µg/plate, zero-dose 402/395/336): 566/525 | Rev/plate (Salmonella TA104; TA104 +S9, Test 3, 1 µg/plate, zero-dose 402/395/336): 754/785 | Rev/plate (Salmonella TA104; TA104 +S9, Test 3, 2.5 µg/plate, zero-dose 402/395/336): 1235/1287 | Rev/plate (Salmonella TA104; TA104 +S9, Test 3, 5 µg/plate, zero-dose 402/395/336): 1508/1620 | Mutagenic potency, Revertants/µg ± S.E., TA104 (Salmonella TA104; plate-incorporation, +S9): 369 ± 28 rev/µg | Mutagenicity call TA104 (Salmonella TA104; plate-incorporation, +S9): (+) (Called mutagenic (+) based on showing reproducible, dose-related increases in rev/plate that reached or exceeded 2-fold relative to zero-dose controls) | Rev/plate (Salmonella TA98; TA98 +S9, Test 1, 2 µg/plate, zero-dose 33/40/39): 61 rev/plate | Rev/plate (Salmonella TA98; TA98 +S9, Test 1, 5 µg/plate, zero-dose 33/40/39): 87 rev/plate | Rev/plate (Salmonella TA98; TA98 +S9, Test 1, 10 µg/plate, zero-dose 33/40/39): 94 rev/plate | Rev/plate (Salmonella TA98; TA98 +S9, Test 1, 20 µg/plate, zero-dose 33/40/39): 156 rev/plate | Rev/plate (Salmonella TA98; TA98 +S9, Test 1, 40 µg/plate, zero-dose 33/40/39): 285 rev/plate | Rev/plate (Salmonella TA98; TA98 +S9, Test 1, 80 µg/plate, zero-dose 33/40/39): 412 rev/plate | Rev/plate (Salmonella TA98; TA98 +S9, Test 2, 10 µg/plate, zero-dose 43/41/30): 104/110 | Rev/plate (Salmonella TA98; TA98 +S9, Test 2, 20 µg/plate, zero-dose 43/41/30): 124/134 | Rev/plate (Salmonella TA98; TA98 +S9, Test 2, 40 µg/plate, zero-dose 43/41/30): 276/244 | Rev/plate (Salmonella TA98; TA98 +S9, Test 2, 80 µg/plate, zero-dose 43/41/30): 381/323 | Rev/plate (Salmonella TA98; TA98 +S9, Test 3, 10 µg/plate, zero-dose 49/50/50): 143/142 | Rev/plate (Salmonella TA98; TA98 +S9, Test 3, 20 µg/plate, zero-dose 49/50/50): 193/190 | Rev/plate (Salmonella TA98; TA98 +S9, Test 3, 40 µg/plate, zero-dose 49/50/50): 315/359 | Rev/plate (Salmonella TA98; TA98 +S9, Test 3, 80 µg/plate, zero-dose 49/50/50): 448/459 | Mutagenic potency, Revertants/µg ± S.E., TA98 (Salmonella TA98; plate-incorporation, +S9): 5.6 ± 0.8 rev/µg | Mutagenicity call TA98 (Salmonella TA98; plate-incorporation, +S9): (+) (Called mutagenic (+) based on showing reproducible, dose-related increases in rev/plate that reached or exceeded 2-fold relative to zero-dose controls) | Fold increase in mutant frequency relative to DMSO-treated cells (strain TA100; 2 µg/ml): 2.5 fold | Rev/10^6 survivors (strain TA100; 2 µg/ml): 2.0 Rev/10^6 survivors | Percent survival (strain TA100; 2 µg/ml): 91% | Fold increase in mutant frequency relative to DMSO-treated cells (strain TA100; 5 µg/ml): 2.8 fold | Rev/10^6 survivors (strain TA100; 5 µg/ml): 2.2 Rev/10^6 survivors | Percent survival (strain TA100; 5 µg/ml): 63% | Rev/plate (Salmonella TA100; TA100 +S9, Test 1, 2 µg/plate, zero-dose 99/110/110): 326 rev/plate | Rev/plate (Salmonella TA100; TA100 +S9, Test 1, 5 µg/plate, zero-dose 99/110/110): 554 rev/plate | Rev/plate (Salmonella TA100; TA100 +S9, Test 1, 10 µg/plate, zero-dose 99/110/110): 755 rev/plate | Rev/plate (Salmonella TA100; TA100 +S9, Test 1, 20 µg/plate, zero-dose 99/110/110): 995 rev/plate | Rev/plate (Salmonella TA100; TA100 +S9, Test 1, 40 µg/plate, zero-dose 99/110/110): 992 rev/plate | Rev/plate (Salmonella TA100; TA100 +S9, Test 1, 80 µg/plate, zero-dose 99/110/110): 847 rev/plate | Rev/plate (Salmonella TA100; TA100 +S9, Test 2, 0.5 µg/plate, zero-dose 84/78/80): 80/94 | Rev/plate (Salmonella TA100; TA100 +S9, Test 2, 1 µg/plate, zero-dose 84/78/80): 140/116 | Rev/plate (Salmonella TA100; TA100 +S9, Test 2, 2.5 µg/plate, zero-dose 84/78/80): 268/224 | Rev/plate (Salmonella TA100; TA100 +S9, Test 2, 5 µg/plate, zero-dose 84/78/80): 352/315 | Rev/plate (Salmonella TA100; TA100 +S9, Test 3, 0.5 µg/plate, zero-dose 127/118/125): 147/151 | Rev/plate (Salmonella TA100; TA100 +S9, Test 3, 1 µg/plate, zero-dose 127/118/125): 178/187 | Rev/plate (Salmonella TA100; TA100 +S9, Test 3, 2.5 µg/plate, zero-dose 127/118/125): 347/430 | Rev/plate (Salmonella TA100; TA100 +S9, Test 3, 5 µg/plate, zero-dose 127/118/125): 545/614 | Mutagenic potency, Revertants/µg ± S.E., TA100 (Salmonella TA100; plate-incorporation, +S9): 80.0 ± 13.2 rev/µg | Mutagenicity call TA100 (Salmonella TA100; plate-incorporation, +S9): (+) (Called mutagenic (+) based on showing reproducible, dose-related increases in rev/plate that reached or exceeded 2-fold relative to zero-dose controls) | Abasic sites/10^5 nucleotides ± S.E ([2]; TA100, 2 µg/ml): 2.9 ± 0.23 sites/10^5 nucleotides | Abasic sites/10^5 nucleotides ± S.E ([2]; TA100, 5 µg/ml): 4.7 ± 0.25 sites/10^5 nucleotides
